Target: T1, human V1a receptor (Homo sapiens, UniProt P37288)
T1 construct: expressed in transfected cells; host or cells: HEK293 cells, transiently transfected; cell membranes
Assay: human V1a receptor binding studies (3H-Vasopressin, SPA beads)
Conditions: membranes of HEK293 cells transiently transfected with human V1a receptor, Ki by Cheng-Prussoff from IC50, read-out: pKi hV1a (converted)
Description: The human V1a receptor was cloned by RT-PCR from total human liver RNA. The coding sequence was subcloned in an expression vector after sequencing to confirm the identity of the amplified sequence. […] Cell membranes were prepared from HEK293 cells transiently transfected with the expression vector and grown in 20 liter fermenters with the following protocol.
50 g of cells are re-suspended in 30 ml freshly prepared ice cold Lysis buffer (50 mM HEPES, 1 mM EDTA, 10 mM MgCl2 adjusted to pH=7.4+complete cocktail of protease inhibitor (Roche Diagnostics)). Homogenized with Polytron for 1 min and sonicated on ice for 2×2 minutes at 80% intensity (Vibracell sonicator). The preparation is centrifuged 20 min at 500 g at 4° C., the pellet is discarded and the supernatant centrifuged 1 hour at 43′000 g at 4° C. (19′000 rpm). The pellet is re-suspended in 12.5 ml Lysis buffer+12.5 ml Sucrose 20% and homogenized using a Polytron for 1-2 min. The protein concentration is determined by the Bradford method and aliquots are stored at −80° C. until use. For binding studies 60 mg Yttrium silicate SPA beads (Amersham) are mixed with an aliquot of membrane in binding buffer (50 mM Tris, 120 mM NaCl, 5 mM KCl, 2 mM CaCl2, 10 mM MgCl2) for 15 minutes with mixing. 50 μl of bead/membrane mixture is then added to each well of a 96 well plate, followed by 50 μl of 4 nM 3H-Vasopressin (American Radiolabeled Chemicals). For total binding measurement 100 μl of binding buffer are added to the respective wells, for non-specific binding 100 μl of […] cold vasopressin and for compound testing 100 μl of a serial dilution of each compound in 2% DMSO. The plate is incubated 1 h at room temperature, centrifuged 1 min at 1000 g and counted on a Packard Top-Count. Non-specific binding counts are subtracted from each well and data is normalized to the maximum specific binding set at 100%. To calculate an IC 50 the curve is fitted using a non-linear regression model (XLfit) and the Ki is calculated using the Cheng-Prussoff equation.

T1 sequence (P37288 whole entry): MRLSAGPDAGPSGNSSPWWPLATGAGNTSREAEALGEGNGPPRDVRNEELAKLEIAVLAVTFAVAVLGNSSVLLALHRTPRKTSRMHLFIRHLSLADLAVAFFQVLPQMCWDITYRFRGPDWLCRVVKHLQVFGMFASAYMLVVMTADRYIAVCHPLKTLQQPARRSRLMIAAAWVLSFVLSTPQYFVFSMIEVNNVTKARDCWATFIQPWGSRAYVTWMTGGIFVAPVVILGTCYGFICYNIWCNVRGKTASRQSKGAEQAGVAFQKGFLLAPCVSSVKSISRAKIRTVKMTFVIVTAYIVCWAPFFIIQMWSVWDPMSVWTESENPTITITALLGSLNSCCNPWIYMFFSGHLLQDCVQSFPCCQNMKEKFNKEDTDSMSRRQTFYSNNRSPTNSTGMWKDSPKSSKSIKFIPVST

Row | SMILES | Ki
1 | CCOCC1(C)OC(N2CCC3(CC2)OCc2ccccc23)=NC1=O (single isomer, unassigned; (-)) [Example 97, (−)-5-(Ethoxymethyl)-5-methyl-2-(1′H,3H-spiro[2-benzofuran-1,4′-piperidin]-1′-yl)-1,3-oxazol-4(5H)-one] | 1580 nM
2 | O=C1N=C(N2CCC3(CC2)OCc2ccccc23)OC1C(O)c1ccc(Cl)cc1 (single isomer, unassigned; diastereomer a) [Example 42, (−)-5-[(4-Chlorophenyl)(hydroxy)methyl]-2-(1′H,3H-spiro[2-benzofuran-1,4′-piperidin]-1′-yl)-1,3-oxazol-4(5H)-one diastereomer a] | 3.16 nM
3 | O=C1N=C(N2CCC3(CC2)OCc2ccccc23)OC1C(O)c1ccc(Cl)cc1 (single isomer, unassigned; diastereomer a) [Example 43, (+)-5-[(4-Chlorophenyl)(hydroxy)methyl]-2-(1′H,3H-spiro[2-benzofuran-1,4′-piperidin]-1′-yl)-1,3-oxazol-4(5H)-one diastereomer a] | 15.8 nM
4 | CC1(CC2CCOC2)OC(N2CCC3(CC2)OCc2ccccc23)=NC1=O (single isomer, unassigned; diastereomer a) [Example 99, 5-Methyl-2-(1′H,3H-spiro[2-benzofuran-1,4′-piperidin]-1′-yl)-5-(tetrahydrofuran-3-ylmethyl)-1,3-oxazol-4(5H)-one diastereomer a] | 251 nM
5 | CC1(CC2CCCOC2)OC(N2CCC3(CC2)OCc2ccccc23)=NC1=O (single isomer, unassigned; diastereomer a) [Example 102, (+)-5-Methyl-2-(1′H,3H-spiro[2-benzofuran-1,4′-piperidin]-1′-yl)-5-(tetrahydro-2H-pyran-3-ylmethyl)-1,3-oxazol-4(5H)-one diastereomer a] | 20 nM
6 | CC1(CC2CCCOC2)OC(N2CCC3(CC2)OCc2ccccc23)=NC1=O (single isomer, unassigned; diastereomer a) [Example 103, (−)-5-Methyl-2-(1′H,3H-spiro[2-benzofuran-1,4′-piperidin]-1′-yl)-5-(tetrahydro-2H-pyran-3-ylmethyl)-1,3-oxazol-4(5H)-one diastereomer a] | 10 nM
7 | CC(c1ccccc1)C1(C)OC(N2CCC3(CC2)OCc2ccccc23)=NC1=O (single isomer, unassigned; diastereomer a) [Example 106, 5-Methyl-5-(1-phenylethyl)-2-(1′H,3H-spiro[2-benzofuran-1,4′-piperidin]-1′-yl)-1,3-oxazol-4(5H)-one diastereomer a] | 15.8 nM
8 | CC(c1ccccc1)C1(C)OC(N2CCC3(CC2)OCc2ccccc23)=NC1=O (single isomer, unassigned; diastereomer a) [Example 108, (+)-5-Methyl-5-(1-phenylethyl)-2-(1′H,3H-spiro[2-benzofuran-1,4′-piperidin]-1′-yl)-1,3-oxazol-4(5H)-one diastereomer a] | 12.6 nM
9 | CC(c1ccccc1)C1(C)OC(N2CCC3(CC2)OCc2ccccc23)=NC1=O (single isomer, unassigned; diastereomer a) [Example 109, (−)-5-Methyl-5-(1-phenylethyl)-2-(1′H,3H-spiro[2-benzofuran-1,4′-piperidin]-1′-yl)-1,3-oxazol-4(5H)-one diastereomer a] | 50.1 nM
10 | CC(=O)O[C@H]1CC2(C[C@H]1OC(C)=O)OC(N1CCC3(CC1)OCc1ccccc13)=NC2=O (single isomer, unassigned; diastereomer a) [Example 120, 4-Oxo-2-(1′H,3H-spiro[2-benzofuran-1,4′-piperidin]-1′-yl)-1-oxa-3-azaspiro[4.4]non-2-ene-7,8-diyl diacetate diastereomer a] | 200 nM
11 | CO[C@H]1CC2(C[C@H]1OC)OC(N1CCC3(CC1)OCc1ccccc13)=NC2=O (single isomer, unassigned; diastereomer a) [Example 122, 7,8-Dimethoxy-2-(1′H,3H-spiro[2-benzofuran-1,4′-piperidin]-1′-yl)-1-oxa-3-azaspiro[4.4]non-2-en-4-one diastereomer a] | 200 nM
12 | CCCCCC1CCC2(CC1)OC(N1CCC3(CC1)OC(=O)c1ccccc13)=NC2=O (single isomer, unassigned; diastereomer a) [Example 126, 1′-[4-Oxo-8-pentyl-1-oxa-3-azaspiro[4.5]dec-2-en-2-yl]-3H-spiro[2-benzofuran-1,4′-piperidin]-3-one diastereomer a] | 31.6 nM
13 | CCCCCC1CCC2(CC1)OC(N1CCC3(CC1)OCc1ccccc13)=NC2=O (single isomer, unassigned; diastereomer a) [Example 128, 8-Pentyl-2-(1′H,3H-spiro[2-benzofuran-1,4′-piperidin]-1′-yl)-1-oxa-3-azaspiro[4.5]dec-2-en-4-one diastereomer a] | 20 nM
14 | CCOC(=O)C1[C@H]2CC3(C[C@@H]12)OC(N1CCC2(CC1)OCc1ccccc12)=NC3=O (single isomer, unassigned; diastereomer a) [Example 148, Ethyl 4′-oxo-2′-(1′H,3H-spiro[2-benzofuran-1,4′-piperidin]-1′-yl)-4′H-spiro[bicyclo[3.1.0]hexane-3,5′-[1,3]oxazole]-6-carboxylate diastereomer a] | 1000 nM
15 | O=C1N=C(N2CCC3(CC2)OCc2ccccc23)OC1C(O)c1ccc(Cl)cc1 (single isomer, unassigned; diastereomer b) [Example 44, (−)-5-[(4-Chlorophenyl)(hydroxy)methyl]-2-(1′H,3H-spiro[2-benzofuran-1,4′-piperidin]-1′-yl)-1,3-oxazol-4(5H)-one diastereomer b] | 126 nM
16 | O=C1N=C(N2CCC3(CC2)OCc2ccccc23)OC1C(O)c1ccc(Cl)cc1 (single isomer, unassigned; diastereomer b) [Example 45, (+)-5-[(4-Chlorophenyl)(hydroxy)methyl]-2-(1′H,3H-spiro[2-benzofuran-1,4′-piperidin]-1′-yl)-1,3-oxazol-4(5H)-one diastereomer b] | 15.8 nM
17 | CC1(CC2CCOC2)OC(N2CCC3(CC2)OCc2ccccc23)=NC1=O (single isomer, unassigned; diastereomer b) [Example 100, 5-Methyl-2-(1′H,3H-spiro[2-benzofuran-1,4′-piperidin]-1′-yl)-5-(tetrahydrofuran-3-ylmethyl)-1,3-oxazol-4(5H)-one diastereomer b] | 126 nM
18 | CC1(CC2CCCOC2)OC(N2CCC3(CC2)OCc2ccccc23)=NC1=O (single isomer, unassigned; diastereomer b) [Example 104, (+)-5-Methyl-2-(1′H,3H-spiro[2-benzofuran-1,4′-piperidin]-1′-yl)-5-(tetrahydro-2H-pyran-3-ylmethyl)-1,3-oxazol-4(5H)-one diastereomer b] | 50.1 nM
19 | CC1(CC2CCCOC2)OC(N2CCC3(CC2)OCc2ccccc23)=NC1=O (single isomer, unassigned; diastereomer b) [Example 105, (−)-5-Methyl-2-(1′H,3H-spiro[2-benzofuran-1,4′-piperidin]-1′-yl)-5-(tetrahydro-2H-pyran-3-ylmethyl)-1,3-oxazol-4(5H)-one diastereomer b] | 501 nM
